Holding throughout (type): biochemical
One experiment deals with T1, Pepsin (Sus scrofa, UniProt P00791).
T1 construct: purchased Sigma-Aldrich
The experiment in a line: LCMS assay of protease enzymatic action on HP-1 (HDAC buffer at pH 4). The note with it: −SAHA, 5 μM HP-1, 12 hours at 37° C. The procedure:
The enzymatic cleavage of HP-1 was analyzed by performing LCMS assays with sirtuin 1 and 3 (Cayman Chemicals) and the proteases chymotrypsin (Sigma-Aldrich), cathepsin (EMD Millipore), and pepsin* (Sigma-Aldrich). Solutions containing (i) vehicle with DMSO in HDAC buffer, (ii) 5 μM HP-1 in HDAC buffer, and (iii) 5 μM HP-1 and the enzyme in HDAC buffer were incubated for 12 hours at 37° C. Following incubation, a 20 μL aliquot of supernatant from each sample was analyzed by LCMS. Deacetylation of HP-1 was investigated by screening for the DHP-1 (M+H)^+ ion following positive electrospray ionization. All assay samples were analyzed in triplicate. […]
HP-1 was not altered by sirtuins 1 and 3 or the proteases chymotrypsin, cathepsin and pepsin, as determined by LCMS. […] For Cathepsin B, the cleavage of the enzyme substrate, z-RR-pNA (Santa Cruz Biotechnology, Dallas, Tex.) was monitored using a Wallac EnVision 2103 Multilabel fluorescence plate reader (PerkinElmer, Waltham, Mass.) with a 405 nm excitation filter, a 406 nm emission filter, and a gain of 150. The cleavage of the pepsin substrate, Ac-Phe-Tyr-OH (Chem-Impex Inc.), was monitored by LCMS at pH 4. […]

A further experiment deals with T2, HDAC1 (Homo sapiens, UniProt Q13547).
T2 construct: purchased Cayman Chemicals
The experiment in a line: LCMS characterization of enzymatic deacetylation by HDAC1. As to conditions: 5 μM probe, 12 hours at 37° C. How it is done: The enzymatic cleavage of HP-1 and HP-2 was analyzed by performing LCMS assays with HeLa nuclear extract (AnaSpec), HeLa whole cell lysate (Santa Cruz Inc.), and the following purified HDAC isoforms: 1, 2, 3, 6 and 8 (HDAC1, 3 and 8 from Cayman Chemicals and HDAC2 and 6 provided by Dr. Stephen Haggarty). Solutions containing (i) vehicle with DMSO in HDAC buffer, (ii) 5 μM probe in HDAC buffer, (iii) 5 μM probe and HDAC enzyme/HeLa nuclear extract/HeLa whole cell lysate in HDAC buffer, or (iv) 5 μM probe and HDAC enzyme/HeLa nuclear extract/HeLa whole cell lysate pre-incubated with 10 μM SAHA (Provided by Dr. Stephen Haggarty) in HDAC buffer were incubated for 12 hours at 37° C. Following incubation, a 20 μL aliquot of supernatant from each sample was analyzed by LCMS. […] For HP-1, the (M+H)^+ ion for the corresponding aldehyde (8, DHP-1) was detected, which formed following reaction of the initial imine deacetylation product with water. […] The peak area for each detected compound was measured to determine the % deacetylation of each probe. All assay samples were analyzed in triplicate. […]
LCMS characterization of HDAC enzymatic action on HP-1 and HP-2. […] Following incubation, an aliquot of supernatant from each sample was analyzed by LCMS. […] The peak area for each detected compound was measured to determine the % deacetylation of each probe (full experimental details in Example 1).

A further experiment addresses T3, HDAC3 (Homo sapiens, UniProt O15379).
T3 construct: purchased Cayman Chemicals
In words: LCMS characterization of enzymatic deacetylation by HDAC3, incl. cleavage over time (kobs, T1/2). The note with it: for % HP-1 to DHP-1: 5 μM probe, 12 hours at 37° C. How it is done:
The enzymatic cleavage of HP-1 and HP-2 was analyzed by performing LCMS assays with HeLa nuclear extract (AnaSpec), HeLa whole cell lysate (Santa Cruz Inc.), and the following purified HDAC isoforms: 1, 2, 3, 6 and 8 (HDAC1, 3 and 8 from Cayman Chemicals and HDAC2 and 6 provided by Dr. Stephen Haggarty). Solutions containing (i) vehicle with DMSO in HDAC buffer, (ii) 5 μM probe in HDAC buffer, (iii) 5 μM probe and HDAC enzyme/HeLa nuclear extract/HeLa whole cell lysate in HDAC buffer, or (iv) 5 μM probe and HDAC enzyme/HeLa nuclear extract/HeLa whole cell lysate pre-incubated with 10 μM SAHA (Provided by Dr. Stephen Haggarty) in HDAC buffer were incubated for 12 hours at 37° C. Following incubation, a 20 μL aliquot of supernatant from each sample was analyzed by LCMS. Deacetylation of HP-1 and 2 was confirmed by detection of the (M+H)^+.ion following positive electrospray ionization. For HP-1, the (M+H)^+ ion for the corresponding aldehyde (8, DHP-1) was detected, which formed following reaction of the initial imine deacetylation product with water. For HP-2, the […]. ion for the corresponding amine (6, DHP-2) was identified. The peak area for each detected compound was measured to determine the % deacetylation of each probe. All assay samples were analyzed in triplicate. […]
The rate of cleavage of HP-1 by purified HDAC3 was analyzed by performing a LCMS assay. […] Following incubation, a 20 μL aliquot of supernatant from each sample was analyzed by LCMS at t=0, 1, 2, 4, 8, and 12 hours. […] For HP-1, the (M+H)^+ ion for the corresponding aldehyde (8, DHP-1) was detected, which formed following reaction of the initial imine deacetylation product with water. The peak area for each detected compound was measured to determine the % deacetylation of each probe. The observed rate constant was determined using Graphpad by plotting Ln(DHP-1 peak area) versus time. […] All assay samples were analyzed in triplicate. […]
LCMS characterization of HDAC enzymatic action on HP-1 and HP-2. […] Following incubation, an aliquot of supernatant from each sample was analyzed by LCMS. […]

Data on one compound can be found in patent US20160138077A1, “MONITORING AND ASSESSING DEACETYLASE ENZYME ACTIVITY” (THE GENERAL HOSPITAL CORPORATION, priority 2013, published 2016).

T3 sequence (O15379 whole entry): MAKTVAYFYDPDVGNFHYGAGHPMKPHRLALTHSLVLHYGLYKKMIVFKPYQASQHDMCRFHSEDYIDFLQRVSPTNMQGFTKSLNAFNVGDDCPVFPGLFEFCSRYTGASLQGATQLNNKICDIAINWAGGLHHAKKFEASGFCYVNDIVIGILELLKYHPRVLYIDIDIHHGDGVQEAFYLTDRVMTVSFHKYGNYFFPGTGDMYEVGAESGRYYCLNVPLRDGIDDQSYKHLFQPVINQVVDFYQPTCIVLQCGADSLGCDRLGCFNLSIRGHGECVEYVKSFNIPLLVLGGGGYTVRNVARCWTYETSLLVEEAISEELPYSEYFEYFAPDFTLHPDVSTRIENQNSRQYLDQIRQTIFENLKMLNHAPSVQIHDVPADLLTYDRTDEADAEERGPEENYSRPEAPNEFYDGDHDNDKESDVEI
T3 sequence (Q9Y618 395-489 partner limits assumed): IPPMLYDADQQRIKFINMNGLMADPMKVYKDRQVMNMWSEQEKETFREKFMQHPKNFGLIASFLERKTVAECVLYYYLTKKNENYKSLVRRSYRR
T2 sequence (Q13547 whole entry): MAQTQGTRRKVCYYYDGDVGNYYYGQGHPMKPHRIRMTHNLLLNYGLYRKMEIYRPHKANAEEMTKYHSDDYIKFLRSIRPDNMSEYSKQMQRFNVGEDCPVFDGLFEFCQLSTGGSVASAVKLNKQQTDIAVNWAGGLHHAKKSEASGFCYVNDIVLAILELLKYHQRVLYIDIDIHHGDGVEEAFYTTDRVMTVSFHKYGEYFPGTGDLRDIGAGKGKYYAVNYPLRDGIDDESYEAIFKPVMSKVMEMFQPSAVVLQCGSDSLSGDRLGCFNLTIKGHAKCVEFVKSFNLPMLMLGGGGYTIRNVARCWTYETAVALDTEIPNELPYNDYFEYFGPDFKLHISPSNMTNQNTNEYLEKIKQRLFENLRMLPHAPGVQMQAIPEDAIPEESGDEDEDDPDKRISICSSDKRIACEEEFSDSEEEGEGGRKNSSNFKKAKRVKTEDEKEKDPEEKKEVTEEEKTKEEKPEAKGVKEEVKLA
T1 sequence (P00791 60-385): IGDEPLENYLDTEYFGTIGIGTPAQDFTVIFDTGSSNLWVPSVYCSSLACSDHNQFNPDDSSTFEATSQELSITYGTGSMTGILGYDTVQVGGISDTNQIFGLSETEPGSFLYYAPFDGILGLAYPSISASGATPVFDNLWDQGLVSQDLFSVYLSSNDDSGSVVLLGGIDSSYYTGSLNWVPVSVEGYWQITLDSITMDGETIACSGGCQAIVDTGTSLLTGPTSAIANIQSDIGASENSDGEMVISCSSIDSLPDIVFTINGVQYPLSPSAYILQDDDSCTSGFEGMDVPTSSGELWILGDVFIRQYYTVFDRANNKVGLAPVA

In the case of `CC(=O)NC=CCCCCNC(=O)CCCCCNc1ccc([N+](=O)[O-])c2nonc12` [HP-1], the “% HP-1 to DHP-1” value stood at 0% at Pepsin; 0% on HDAC1 (HDAC1, +SAHA (10 μM pre-incubated)); 15% at HDAC1 (HDAC1, −SAHA, maximum detected conversion, 1.5:1 trans:cis mixture); 0% at HDAC3 (HDAC3, +SAHA (10 μM)); 93% on HDAC3 (HDAC3, −SAHA, maximum detected conversion). Besides, the “kobs with HDAC3 (conversion of HP-1 to DHP-1)” value on HDAC3 (5 μM HP-1, HDAC3, 37° C., t=0-12 hours, Ln(DHP-1 peak area) versus time) is 3.2e-05 ± 6e-06 s⁻¹.
